Patent US12360121B2, “Assay for detection of an A2E-Saposin B complex” (Syracuse University, priority 2016, dated 2025)

Target: T1, Saposin B (Homo sapiens, UniProt P07602)
T1 sequence (P07602 195-273 limits assumed): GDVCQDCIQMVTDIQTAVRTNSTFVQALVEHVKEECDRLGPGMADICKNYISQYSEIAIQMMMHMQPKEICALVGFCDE
Experiment: fluorescence spectroscopy showing binding of A2E by Saposin B
Conditions: fluorescence spectroscopy graphs (FIG. 1A, FIG. 1B)
Excerpt: FIG. 1A is a first fluorescence spectroscopy graph showing that Saposin B binds A2E;
FIG. 1B is a second fluorescence spectroscopy graphs showing that Saposin B binds A2E;

For `CC(C=CC1=C(C)CCCC1(C)C)=CC=CC(C)=Cc1cc(C=CC=C(C)C=CC2=C(C)CCCC2(C)C)cc[n+]1CCO` [A2E, N-retinylidene-N-retinylethanolamine], the “binding of A2E by Saposin B” value was “binds”.
